“Also recorded” adds a separate entry of the source.

Consider one compound from publication PMC10547880, “Synthesis and biological evaluation of novel 1,2,3-triazole hybrids of cabotegravir: identification of potent antitumor activity against lung cancer” (Frontiers in Pharmacology, 2023).

Holding throughout (type): cell-based, Human
The subject of test [1] is H460 cells. Put plainly: Western blot of protein expression, H460. The following applies: H460, 2, 4, 8 μM, 72 h. Here is the method:
(§1) Western blot was used to analyze protein expressions. Cells were cultured in 12-well plates and treated with different concentrations (0, 2, 4, 8 μM) of compounds for 72 h. Cell proteins were extracted using RIPA buffer with protease/phosphatase inhibitor cocktail (CST). 10%–15% sodium dodecyl sulfate polyacrylamide gel electrophoresis was used to separate proteins and nitrocellulose membranes (Millipore) was used to collected proteins. Antibodies used in western bolt were LC3 (3868s, CST), caspase 3 (9662s, CST), cyclin D (2922s, CST), cyclin E (20808s, CST), β-Catenin (9562s, CST), γH2AX (9718s, CST), PARP (46D11, CST), and β-actin (4967s, CST). Values were expressed as Mean ± SEM, p < 0.05 was considered statistically significant. Data were performed using Graph Prim 7.0.
(§2) Western blot analysis was performed to assess the protein expressions involved in cell growth and cell death processes. H460 and H1299 cells were treated with different concentrations of compound 5i, and whole cell proteins were collected for analysis. […] Autophagy has both tumor suppression and growth promotion effects in cancers, depending on the cellular context and cancer stage. On the one hand, autophagy inhibits cancer development via eliminating dysfunctional proteins and damaged mitochondria. On the other hand, autophagy can promote tumor growth by providing recycled metabolites to support cancer cell survival and growth ([Wang et al., 2023]). […] But in H1299 cells, compound 5i exerted its anticancer ability by suppressing cell division and proliferation.
Background: In western blotting, separated proteins are transferred to a membrane and probed.

Test [2] deals with H460 cells. Put plainly: Cellular ROS measurement (DCFH-DA), H460. The following applies: H460, 5, 10 or 20 μM, 24 h. As for the experimental part: Cells with a density of 5 × 10^3 cells/well were cultured in a 96-well plate. The cells were treated with different concentrations (0, 5, 10, 20 μM) of compounds for 24 h. Then the medium was replaced with 10 μM DCFH-DA dissolved in culture medium and incubated for 30min at 37°C in dark. The fluorescent cells were observed and photographed using a fluorescent microscope.
Reactive oxygen species (ROS) levels were determined quantitatively using the probe 2′-7′-dichlorodihydrofluorescin diacetate (H2DCFDA) ([Kim and Xue, 2020]). Under normal condition, ROS participated in mitochondrial electron transport, signal transduction, gene expression, and enzyme reactions. But excess or deficiency of ROS levels can result in the development of diseases including cancers, diabetes, atherosclerosis, neurodegenerative diseases and others ([Wang et al., 2023]). ROS induction is associated with mitochondrial membrane damage, cell apoptosis, and ultimately cell death ([Dixon and Stockwell, 2014]). To evaluate the effect of compound 5i on ROS generation, H460 cells were treated with 5 μM, 10 μM or 20 μM of compound 5i for 24 h. […] DCFH-DA has no fluorescence and it can pass through cell membrane freely. […] This phenomenon can be attributed to the reduction in the number of live cells; however, the observed fluorescence appeared more intense (Figure 5).

Test [3] concerns H460 cells. Put plainly: Plate clone formation assay, H460. The following applies: H460, 2-32 μM, particularly 16 μM and 32 μM. As for the experimental part:
Cells with the density of 500 cells per well were seeded in a 6-well plate. Different concentrations (0, 2 μM, 4 μM, 8 μM, 16 μM and 32 μM) of compounds were added to cells and maintained for a 72- hour duration. And cells were cultured until the monoclonal appeared. Afterward, cells were fixed with 4% paraformaldehyde and stained by Giemsa dye. The plate clone numbers were photographed and counted using a microscope. Values were expressed as Mean ± SEM, p < 0.05 was considered statistically significant. Data were performed using Graph Prim 7.0.
To assess the anti-proliferative effects of compound 5i, live/dead cell staining was performed using Calcein Acetoxymethyl Ester (Calcein-AM) and Propidium Iodide (PI) dyes ([Xie et al., 2023]). Calcein-AM highlights live cells through green fluorescence emission, while PI identifies dead cells with damaged membrane integrity, producing red fluorescence. H460 and H1299 cells were treated with different concentrations (0, 5, 10 and 20 μM) of compound 5i for 24 h. After 24 h treatment, cells were stained with Calcein-AM and PI, diluted in cultured medium, and incubated for an hour in dark. Then the fluorescence was detected and photographed using a fluorescent microscope. […] In addition, we also performed plate clone formation assay ([Xu et al., 2018]) to further investigate the anti-proliferation ability of compound 5i. […]

For test [4], the system named is H1299 cells. Kind of test: Western blot of protein expression, H1299. Conditions: H1299, 2, 4, 8 μM, 72 h. Here is the method:
as §1, §2

The subject of test [5] is H1299 cells. Kind of test: Apoptosis assay, Annexin V-FITC/PI flow cytometry, H1299. The following applies: H1299, 72 h. As for the experimental part:
Cells with a density of 3 × 10^5 cells per well were seeded in 6-well plates. After overnight adhesion, cells were treated with different concentrations of compounds for 72 h. Cells were harvested and stained with Annexin V-FITC and propidium iodide. Apoptotic ratio was quantified using the flow cytometry (BD Biosciences) and analyzed using the FlowJo software v10. Values were expressed as Mean ± SD, p < 0.05 was considered statistically significant. Data were performed using Graph Prim 7.0.
Apoptosis is a programmed-controlled process of cell self-destruction, and increased cell apoptosis can lead to cell death ([Wang et al., 2023]). To explore the preliminary molecular mechanisms of the synthesized compounds action, the apoptotic activity of compound 5i was evaluated by comparing the percentage of apoptotic cells with untreated cells using flow cytometry after staining with Annexin V-FITC and PI ([Chen et al., 2022a]). This assay facilitates the detection of necrotic cells (Q1, AV-/PI+), late apoptotic cells (Q2, AV+/PI+), early apoptotic cells (Q3, AV+/PI-), and live cells (Q4, AV-/PI-). H460 and H1299 cells were treated with different doses of compound 5i for 72h, and cells were collected, stained, and analyzed. The proportion of early and late apoptotic cells was added and their ratio relative to the total cells was calculated.
On the technique in general: In flow cytometry, cells or beads pass a laser one at a time.

`COc1c2n(cc(C(=O)Nc3cccc(-c4cn(-c5ccccc5OC(F)(F)F)nn4)c3)c1=O)CC1OCC(C)N1C2=O` (centres unmarked) [Compound 5i]: in test [1], the “Cyclin D expression” value is “no significant differences”, the “Cyclin E expression” value is “no significant differences”, the LC3 expression result is “pronounced elevation; also recorded: significant increase” and the PARP expression result is reported as “no significant differences”. Further, in test [1], the caspase3 expression entry is “no significant differences”, the β-catenin expression entry is “no significant differences” and the γ-H2AX expression entry is listed as “no significant differences”. Also, the ROS generation entry in test [2] was “significant augmentation in ROS generation”. Also, the “number of cell clones” value in test [3] is reported as “decreased”. For the same compound, in test [4], the “Cyclin D level” value is reported as “decrease”, the “Cyclin E level” value was “decrease”, the LC3 expression entry was “no significant differences” and the PARP expression entry is reported as “remained unaffected”. For the same compound, in test [4], the “caspase3 expression” value is reported as “no significant differences”, the β-catenin expression result is listed as “remained unaltered” and the γ-H2AX expression entry is “pronounced elevation; also recorded: increased expression”. Further, the “apoptotic cells (early + late)” value in test [5] was “no significant change or even a decrease”.
